In ChEMBL document CHEMBL1909046, “DrugMatrix in vitro pharmacology data” one finds Ki and IC50 data, which are given here for 19 molecules.

In series [1] the target is Kappa-type opioid receptor (Homo sapiens, UniProt P41145). Briefly: DRUGMATRIX: Opiate kappa (OP2, KOP) radioligand binding (ligand: [3H] Diprenorphine). The conditions noted are these: Not Active = under 50% inhibition at 10 µM. The format is cell membranes, HEK293, Membrane.
Series [2] addresses Mu-type opioid receptor (Homo sapiens, UniProt P35372). Kind of series: DRUGMATRIX: Opiate mu (OP3, MOP) radioligand binding (ligand: [3H] Diprenorphine). Type of series: cell membranes, CHO-K1, Membrane. The conditions noted are these: Not Active = under 50% inhibition at 10 µM.
The target of series [3] is T1, Progesterone receptor (Bos taurus, UniProt Q690N0).
T1 sequence (Q690N0 whole entry): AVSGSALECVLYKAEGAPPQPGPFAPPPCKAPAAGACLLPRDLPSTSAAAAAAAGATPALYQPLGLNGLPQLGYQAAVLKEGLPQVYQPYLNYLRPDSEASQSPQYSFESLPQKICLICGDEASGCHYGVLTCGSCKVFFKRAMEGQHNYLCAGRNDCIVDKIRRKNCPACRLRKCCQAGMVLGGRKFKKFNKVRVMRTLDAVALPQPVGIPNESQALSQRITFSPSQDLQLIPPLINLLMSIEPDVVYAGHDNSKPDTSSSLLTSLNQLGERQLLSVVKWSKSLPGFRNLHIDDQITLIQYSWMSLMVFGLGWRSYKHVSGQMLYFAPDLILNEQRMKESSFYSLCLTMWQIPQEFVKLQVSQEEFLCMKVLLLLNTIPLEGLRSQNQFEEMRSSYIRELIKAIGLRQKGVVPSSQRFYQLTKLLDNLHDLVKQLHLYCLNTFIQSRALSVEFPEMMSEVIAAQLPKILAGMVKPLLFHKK
Kind of series: DRUGMATRIX: Progesterone radioligand binding (ligand: [3H] R-5020). Type of series: tissue-based, Uterus. The conditions noted are these: Not Active = under 50% inhibition at 10 µM.

Series [4] concerns the target T2, Cytochrome P450 2A6 (Homo sapiens, UniProt P11509). Note: in other assays of this panel Not Active means under 50% inhibition at 10 µM.
T2 sequence (P11509 whole entry): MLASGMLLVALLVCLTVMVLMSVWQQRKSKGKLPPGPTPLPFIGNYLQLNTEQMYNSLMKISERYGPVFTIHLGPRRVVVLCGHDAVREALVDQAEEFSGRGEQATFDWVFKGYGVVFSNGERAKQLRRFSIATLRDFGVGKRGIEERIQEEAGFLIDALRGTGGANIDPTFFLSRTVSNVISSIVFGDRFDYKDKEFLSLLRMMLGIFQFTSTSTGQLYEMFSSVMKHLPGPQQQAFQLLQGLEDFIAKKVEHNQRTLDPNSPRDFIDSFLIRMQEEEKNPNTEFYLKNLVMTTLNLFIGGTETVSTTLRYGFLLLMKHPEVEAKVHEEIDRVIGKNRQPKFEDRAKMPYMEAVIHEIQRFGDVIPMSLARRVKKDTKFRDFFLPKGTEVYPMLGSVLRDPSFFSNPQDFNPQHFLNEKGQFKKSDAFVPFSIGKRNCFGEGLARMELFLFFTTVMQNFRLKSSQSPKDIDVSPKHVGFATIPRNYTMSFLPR
The settings on record: bti-tn-5b1-4.

Series [5] deals with Cytochrome P450 2E1 (Homo sapiens, UniProt P05181). The settings on record: bti-tn-5b1-4.
In series [6] the target is Voltage-gated inwardly rectifying potassium channel KCNH2 (Homo sapiens, UniProt Q12809). The conditions noted are these: hek293. Note: in other assays of this panel Not Active means under 50% inhibition at 10 µM.
In series [7] the target is T3, Alpha-2A adrenergic receptor (Homo sapiens, UniProt P08913). Note: in other assays of this panel Not Active means under 50% inhibition at 10 µM.
T3 sequence (P08913 whole entry): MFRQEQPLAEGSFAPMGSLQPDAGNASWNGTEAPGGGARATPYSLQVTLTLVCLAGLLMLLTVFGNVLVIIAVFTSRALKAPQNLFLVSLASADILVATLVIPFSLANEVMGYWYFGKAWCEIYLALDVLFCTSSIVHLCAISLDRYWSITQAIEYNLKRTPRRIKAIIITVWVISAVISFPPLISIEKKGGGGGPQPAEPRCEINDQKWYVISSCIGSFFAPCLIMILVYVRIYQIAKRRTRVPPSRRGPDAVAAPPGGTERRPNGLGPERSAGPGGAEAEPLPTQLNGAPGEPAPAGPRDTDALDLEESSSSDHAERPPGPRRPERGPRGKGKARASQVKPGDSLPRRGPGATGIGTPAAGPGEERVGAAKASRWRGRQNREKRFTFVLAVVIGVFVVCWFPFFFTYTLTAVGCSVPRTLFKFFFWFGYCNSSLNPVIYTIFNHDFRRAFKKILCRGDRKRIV
Type of series: cell membranes, Sf9, Membrane. The conditions noted are these: sf9.

Mu-type opioid receptor, sequence (P35372 whole entry): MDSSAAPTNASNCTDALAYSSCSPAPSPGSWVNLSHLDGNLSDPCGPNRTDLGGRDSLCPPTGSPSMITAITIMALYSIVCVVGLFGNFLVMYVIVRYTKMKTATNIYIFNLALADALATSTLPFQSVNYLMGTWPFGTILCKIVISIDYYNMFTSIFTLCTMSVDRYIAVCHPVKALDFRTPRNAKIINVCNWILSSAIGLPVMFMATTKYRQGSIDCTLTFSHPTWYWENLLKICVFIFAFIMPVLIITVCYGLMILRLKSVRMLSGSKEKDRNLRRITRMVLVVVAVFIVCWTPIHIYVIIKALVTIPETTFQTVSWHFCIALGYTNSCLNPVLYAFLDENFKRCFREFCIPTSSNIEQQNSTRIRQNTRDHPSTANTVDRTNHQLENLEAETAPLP
Cytochrome P450 2E1, sequence (P05181 whole entry): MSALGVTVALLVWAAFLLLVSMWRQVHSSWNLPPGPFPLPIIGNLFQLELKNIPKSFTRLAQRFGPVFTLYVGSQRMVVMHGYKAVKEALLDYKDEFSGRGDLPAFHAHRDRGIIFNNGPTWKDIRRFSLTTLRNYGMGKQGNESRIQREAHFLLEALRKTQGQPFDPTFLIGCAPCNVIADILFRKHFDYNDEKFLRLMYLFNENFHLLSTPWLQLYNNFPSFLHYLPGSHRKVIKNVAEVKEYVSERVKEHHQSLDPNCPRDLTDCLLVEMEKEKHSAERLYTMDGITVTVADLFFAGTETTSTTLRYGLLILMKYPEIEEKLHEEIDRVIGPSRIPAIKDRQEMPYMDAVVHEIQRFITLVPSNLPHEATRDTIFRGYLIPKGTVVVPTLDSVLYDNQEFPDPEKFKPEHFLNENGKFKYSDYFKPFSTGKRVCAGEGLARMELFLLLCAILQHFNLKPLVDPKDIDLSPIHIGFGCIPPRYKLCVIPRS
Kappa-type opioid receptor, sequence (P41145 whole entry): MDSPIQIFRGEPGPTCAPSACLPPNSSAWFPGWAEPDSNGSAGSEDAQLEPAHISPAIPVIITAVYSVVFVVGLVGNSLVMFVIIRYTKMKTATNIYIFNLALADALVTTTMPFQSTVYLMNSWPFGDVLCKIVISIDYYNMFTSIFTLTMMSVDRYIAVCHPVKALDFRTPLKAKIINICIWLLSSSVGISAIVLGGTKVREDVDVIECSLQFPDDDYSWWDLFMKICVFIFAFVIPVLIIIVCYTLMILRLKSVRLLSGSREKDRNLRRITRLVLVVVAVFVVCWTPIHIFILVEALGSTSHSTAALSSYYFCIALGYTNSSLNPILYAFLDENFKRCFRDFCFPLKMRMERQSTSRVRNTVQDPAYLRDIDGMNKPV
Voltage-gated inwardly rectifying potassium channel KCNH2, sequence (Q12809 whole entry): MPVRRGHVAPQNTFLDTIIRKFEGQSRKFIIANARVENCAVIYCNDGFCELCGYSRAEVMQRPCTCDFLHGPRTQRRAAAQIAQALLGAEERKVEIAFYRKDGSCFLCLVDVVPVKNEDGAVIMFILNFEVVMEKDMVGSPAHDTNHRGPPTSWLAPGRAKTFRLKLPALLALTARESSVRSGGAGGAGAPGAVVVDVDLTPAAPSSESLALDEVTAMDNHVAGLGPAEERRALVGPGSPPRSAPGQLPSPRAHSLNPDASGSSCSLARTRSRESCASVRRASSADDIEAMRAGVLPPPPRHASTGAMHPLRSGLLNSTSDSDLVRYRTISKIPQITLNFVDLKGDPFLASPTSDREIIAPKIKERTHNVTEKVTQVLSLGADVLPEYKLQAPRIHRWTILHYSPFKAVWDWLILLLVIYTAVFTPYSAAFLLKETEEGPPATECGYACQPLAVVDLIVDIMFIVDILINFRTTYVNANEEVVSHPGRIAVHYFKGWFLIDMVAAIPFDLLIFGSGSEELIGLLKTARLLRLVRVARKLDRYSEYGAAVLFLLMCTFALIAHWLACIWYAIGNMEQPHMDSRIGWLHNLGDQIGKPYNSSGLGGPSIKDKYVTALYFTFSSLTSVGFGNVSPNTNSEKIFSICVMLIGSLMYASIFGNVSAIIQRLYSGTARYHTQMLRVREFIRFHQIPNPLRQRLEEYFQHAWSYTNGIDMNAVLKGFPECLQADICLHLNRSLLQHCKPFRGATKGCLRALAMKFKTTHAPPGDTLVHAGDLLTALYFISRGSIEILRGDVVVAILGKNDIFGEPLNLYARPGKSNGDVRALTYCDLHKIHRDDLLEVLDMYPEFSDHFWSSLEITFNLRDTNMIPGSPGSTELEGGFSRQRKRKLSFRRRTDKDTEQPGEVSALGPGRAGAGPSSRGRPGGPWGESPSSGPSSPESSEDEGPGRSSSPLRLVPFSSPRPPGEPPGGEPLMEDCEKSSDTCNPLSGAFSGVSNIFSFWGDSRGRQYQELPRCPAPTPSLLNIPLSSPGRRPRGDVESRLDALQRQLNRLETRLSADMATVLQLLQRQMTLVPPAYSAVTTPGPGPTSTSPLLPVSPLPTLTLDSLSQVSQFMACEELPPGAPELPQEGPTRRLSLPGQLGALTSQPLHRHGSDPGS

Take `CCN(CC)C(=S)SSC(=S)N(CC)CC`: the inhibition constant (Ki) in series [1] is 2.44 µM; in series [2], 1.42 µM; in series [4], “Not Active”; in series [5] it was “Not Active”; in series [6], “Not Active”. Moreover, the half-maximal inhibitory concentration (IC50) was 6.1 µM in series [1] (read-out: IC50); 3.51 µM in series [2] (read-out: IC50); “Not Active” in series [3]; “Not Active” in series [4]; “Not Active” in series [5]; “Not Active” in series [6].

Consider `CN(C)CCC=C1c2ccccc2COc2ccccc21` [DOXEPIN], for which the half-maximal inhibitory concentration (IC50) result in series [1] (hek293), in series [2] (cho-k1), in series [3], in series [4], in series [5] and in series [6] was “Not Active” in each case. Moreover, the inhibition constant (Ki) entry in series [4], in series [5] and in series [6] was “Not Active” throughout.

With `OC[C@@H](O)[C@@H](O)[C@H](O)[C@H](O)CO` [MANNITOL], the IC50 result in series [7], in series [2] (cho-k1), in series [3], in series [4], in series [5] and in series [6] was “Not Active” in each case. Also, the Ki entry in series [4], in series [5] and in series [6] was “Not Active” in each case.

`CNCCCC12CCC(c3ccccc31)c1ccccc12` [MAPROTILINE]: the 50% inhibitory concentration (IC50) result in series [1] (hek293), in series [2] (cho-k1), in series [3] and in series [6] was “Not Active” in each case. For the same molecule, the Ki entry in series [6] was “Not Active”.

Turning to `CN1C[C@H](CNC(=O)OCc2ccccc2)C[C@@H]2c3cccc4c3c(cn4C)C[C@H]21` [METERGOLINE], the IC50 entry in series [1] (hek293), in series [2] (cho-k1), in series [3], in series [4], in series [5] and in series [6] was “Not Active” in each case. Further, the inhibitory constant (Ki) result in series [4], in series [5] and in series [6] was “Not Active” each time.

On to `C[N+]1(C)[C@@H]2C[C@@H](OC(=O)[C@H](CO)c3ccccc3)C[C@H]1[C@@H]1O[C@@H]12.[Br-]` [METHSCOPOLAMINE BROMIDE], for which the IC50 entry in series [7], in series [2] (cho-k1), in series [3], in series [4], in series [5] and in series [6] was “Not Active” each time. In addition, the Ki result in series [4], in series [5] and in series [6] was “Not Active” each time.

Regarding `CC[C@H](C)C(=O)O[C@H]1CCC=C2C=C[C@H](C)[C@H](CC[C@@H]3C[C@@H](O)CC(=O)O3)[C@H]21` [MEVASTATIN], the IC50 result in series [7], in series [1] (hek293), in series [2] (cho-k1), in series [3], in series [4] and in series [5] was “Not Active” each time. Moreover, the Ki result in series [4] and in series [5] was “Not Active” throughout.

On to `CC#C[C@]1(O)CC[C@H]2[C@@H]3CCC4=CC(=O)CCC4=C3[C@@H](c3ccc(N(C)C)cc3)C[C@@]21C` [MIFEPRISTONE], for which the concentration for half-maximal inhibition (IC50) entry in series [7] is “Not Active”; in series [1] (read-out: IC50), 20.1 µM; in series [4], “Not Active”; in series [5] it was “Not Active”. The Ki in series [1] was 8.04 µM; in series [4], “Not Active”; in series [5], “Not Active”.

Regarding `Cc1[nH]c(=O)c(C#N)cc1-c1ccncc1` [MILRINONE], the concentration for half-maximal inhibition (IC50) result in series [7], in series [1] (hek293), in series [2] (cho-k1), in series [4] and in series [5] was “Not Active” in each case. Moreover, the Ki entry in series [4] and in series [5] was “Not Active” throughout.

Consider `CCN(CC)N=O` [N-NITROSODIETHYLAMINE], for which the IC50 entry in series [7], in series [3], in series [4], in series [5] and in series [6] was “Not Active” each time. Besides, the Ki entry in series [4], in series [5] and in series [6] was “Not Active” in each case.

Take `O=C1CC[C@@]2(O)[C@H]3Cc4ccc(O)c5c4[C@@]2(CCN3CC2CC2)[C@H]1O5` [NALTREXONE]: the 50% inhibitory concentration (IC50) result in series [7], in series [3], in series [4], in series [5] and in series [6] was “Not Active” in each case. Moreover, the inhibition constant (Ki) result in series [4], in series [5] and in series [6] was “Not Active” each time.

With `Cc1cc2c(s1)Nc1ccccc1N=C2N1CCN(C)CC1` [OLANZAPINE], the IC50 result in series [1] (hek293), in series [2] (cho-k1), in series [3], in series [4] and in series [5] was “Not Active” throughout. The Ki entry in series [4] and in series [5] was “Not Active” in each case.

In the case of `Oc1ccc(/C=C/c2cc(O)cc(O)c2)cc1` [RESVERATROL], the IC50 entry in series [7], in series [4], in series [5] and in series [6] was “Not Active” each time. Also, the Ki result in series [4], in series [5] and in series [6] was “Not Active” each time.

`CCC(C)(C)C(=O)O[C@H]1C[C@@H](C)C=C2C=C[C@H](C)[C@H](CC[C@@H]3C[C@@H](O)CC(=O)O3)[C@H]21` [SIMVASTATIN]: the IC50 result in series [7], in series [1] (hek293), in series [2] (cho-k1) and in series [3] was “Not Active” throughout.

With `O=[As][O-].[Na+]` [SODIUM ARSENITE], the IC50 entry in series [7], in series [3], in series [4], in series [5] and in series [6] was “Not Active” in each case. Further, the inhibition constant Ki entry in series [4], in series [5] and in series [6] was “Not Active” throughout.

Turning to `C1CCN2C[C@@H]3C[C@@H](CN4CCCC[C@@H]34)[C@H]2C1` [SPARTEINE], the concentration for half-maximal inhibition (IC50) entry in series [7], in series [3] and in series [6] was “Not Active” each time. Besides, the Ki result in series [6] was “Not Active”.

For the molecule `Cc1cccc(C)c1NC(=O)C(C)N` (configuration not stated) [TOCAINIDE], the IC50 entry in series [7], in series [1] (hek293), in series [2] (cho-k1), in series [4], in series [5] and in series [6] was “Not Active” throughout. For the same molecule, the Ki entry in series [4], in series [5] and in series [6] was “Not Active” throughout.

Take `CC(Cl)(Cl)Cl` [TRICHLOROETHANE]: the IC50 entry in series [7], in series [3], in series [4], in series [5] and in series [6] was “Not Active” each time. Moreover, the Ki entry in series [4], in series [5] and in series [6] was “Not Active” each time.

For LEAD(IV) ACETATE, the 50% inhibitory concentration (IC50) entry in series [7], in series [3], in series [4], in series [5] and in series [6] was “Not Active” throughout. The Ki entry in series [7], in series [3], in series [4], in series [5] and in series [6] was “Not Active” throughout.

A word on the Ki: it is the dissociation constant of the complex between target and ligand, obtained from inhibition or displacement. Read a high Ki as a looser hold on the target. A word on the IC50: it is the midpoint of a concentration-inhibition curve.
